Assay results: PMC13183915, “A platinum butterfly effect: small changes turn an anticancer drug into a non-toxic metalloantibiotic with in vivo efficacy” (npj Antimicrobials and Resistance, 2026)
Converted amounts (≈) assume the structure as drawn. Where two headings read alike, the source gives them in different places.

Experiments:
[1] = test system: 36th Passage S.aureus ATCC 29213 in the presence of Pt-1; experiment: microbe, parasite or virus in culture; format: cell-based; conditions: Staphylococcus aureus, ATCC29213
Description: (§1) The MICs of the passaged cultures were determined every 3 days and compared to that of wild type S. aureus ATCC 29213. MIC changes were recorded for 36 passages.

S. aureus ATCC 29213 [2] = experiment: Drug interaction study (chequerboard assay); format: cell-based; conditions: for MIC: Staphylococcus aureus, ATCC29213, compound alone, Table S8, read-out: MIC; for FIC B: antibiotic in combination with Pt1 / alone; for FIC (FICA+FICB) / Interference: combination with Pt1; for Interference: synergistic ≤0.5, indifferent >0.5 to 4, antagonistic >4
Description: All compounds were freshly prepared for the experiment. […] Following incubation, the fractional inhibitory concentration index (FICI) was calculated with the formula FICI = […], whereby FICA = MIC of drug A in combination/MIC of drug A alone and FICB = MIC of drug B in combination/MIC of drug B alone. A drug combination is considered synergistic when ∑FICI is ≤0.5, indifferent when ∑FICI is >0.5 to 4, and antagonistic when ∑FICI is >4.

MSSA ATCC 29213 = experiment: Broth microdilution MIC, MSSA ATCC 29213; format: cell-based, S. aureus; conditions: Staphylococcus aureus; S.aureus ATCC 29213 (unpassaged), Table S9; read-out: MIC
Description: The data is given in supporting information (Table S5). Before starting the experiment, a single colony was picked from MHA plate, inoculated in MHBII and incubated overnight at 37 °C with shaking for 18–24 h to get the starter culture. Antibiotic susceptibility testing was conducted according to the CLSI (Clinical & Laboratory Standards Institute) guidelines using the broth microdilution assay. 10 mg/mL stock solutions of test compounds were prepared in DMSO. Bacterial cultures were inoculated in MHBII and optical density (OD) was measured at 600 nm, followed by dilution to achieve ~10^6 CFU/mL. The compounds were tested from 64 to 0.5 mg/L in two-fold serial diluted fashion with 2.5 μL of each concentration added to well of a 96-well round bottom microtiter plate. Later, 97.5 μL of bacterial suspension was added to each well containing either test compound or appropriate controls. […] The MIC is defined as the lowest concentration of the compound at which there is absence of visible growth. For each test compound, MIC determinations were carried out independently three times using duplicate samples.

[3] = test system: methicillin-sensitive Staphylococcus aureus (MSSA), clinical isolate; experiment: MIC assay, MSSA clinical isolate; format: cell-based; conditions: MSSA clinical isolate
B. subtilis bSS82 = experiment: Bacterial cytological profiling (BCP); format: cell-based, Bacillus subtilis
Description: To get an overview of the cellular effects of the compounds, we employed bacterial cytological profiling (BCP). To this end, we used a strain intracellularly expressing green-fluorescent protein (GFP) from the strong, constitutive PrpsD promoter (B. subtilis bSS82[37]), stained with the membrane dye Nile red and the DNA dye DAPI. Combined with phase contrast microscopy, this setup allows simultaneous assessment of cell morphology, cell lysis, pore formation, membrane morphology, and nucleoid morphology in one assay.
BCP was performed according to Wenzel et al.[71]. In short, B. subtilis strain […] (PrpsD-gfp) was grown to an OD600 of 0.3 prior to splitting of parent cultures and addition of antibiotics. Samples were taken for microscopy after 30, 60, and 120 min of antibiotic treatment. Five minutes prior to sampling, cultures were stained with 0.5 µg/mL Nile red and 1 µg/mL DAPI for 5 min. Samples of 0.5 µL were then spotted onto 1% agarose slides[45] and images were taken immediately.
Cell length and DAPI intensity were analyzed using MicrobeJ[73]. To this end, the fit shape, rod-shaped setting was used with a minimum area of 0.5 µm, while all other settings remained at default. B. subtilis chains were seperated based on the membrane stain. Membrane stress was counted using the ObjectJ plugin[74], using the membrane setting to seperate individual cells in chains. Membrane damage was expressed as ratio of cells with visible Nile red foci and total detected cells. DNA compaction was analyzed by determining the area of the DNA and the whole cell are using advanced weka segmentation. Cells were segmented according to the GFP signal. […] Cells that were out of focus or lysed were excluded from the analysis. Statistical analysis was peformed using GraphPad Prism 10 as specified in the individual figure legends.

[4] = test system: RecA-GFP (B. subtilis UG10); experiment: Localization of RecA-GFP (DNA damage reporter); format: cell-based, Bacillus subtilis; conditions: Pt1 3.125 µM, Pt8 25 µM, CisPt 100 µM; strongest after 10 min
Description: To confirm whether the compounds induce DNA damage in bacterial cells, the localization of RecA was assessed. RecA is part of the bacterial SOS response to DNA damage. It is a DNA-associated protein that recognizes single-stranded DNA, which occurs as a consequence of strand breaks. If strand breaks are present, RecA accumulates at the damaged sites, appearing as foci or elongated structures. Since the RecA response is strongest shortly after stress induction, we additionally examined a 10 min timepoint in this assay.
B. subtilis strains were grown in LB containing appropriate inducer concentrations as specified in Table S10. After reaching an OD600 of 0.3, cultures were split and treated with antibiotics. Samples were withdrawn after 30 and 60 min of treatment, spotted on glass slides covered with 1% agarose films, and immediately imaged.

Bacillus subtilis MW168 = experiment: MIC assay, B. subtilis MW168; format: cell-based; conditions: B. subtilis MW168
[5] = test system: methicillin-resistant S. aureus (MRSA) COL; experiment: MIC assay, MRSA COL; format: cell-based, Staphylococcus aureus; conditions: MRSA COL
HEK293T cells = format: cell-based, Human
Description: The control for the experiments was DMSO. HEK293T cells were cultivated in DMEM high glucose supplemented with 10% heat-inactivated fetal bovine serum, 100 U/mL of penicillin and streptomycin and maintained at a temperature of 37 °C with 5% CO2. Initially, 4000/well of cells were seeded into 96-well plates and incubated for 24 h before being exposed to compounds at concentrations ranging from 0.78, 50, and 100 µM. After 24 h of incubation, the compounds were added and serially diluted and incubated for 24 and 48 h at 37 °C 5% CO2, the cells were stained with alamar Blue, and the fluorescence excitation/ emission 540 nm/590 nm was measured using 96 well-plate reader. CC50 is defined as the lowest concentration of compound which leads to a 50% reduction in cell viability compared to untreated and DMSO control. Each experiment was repeated in triplicate.

S. aureus ATCC 29213 [6] = experiment: Post antibiotic effect (PAE); format: cell-based; conditions: for Time for 1 log10 increase in bacterial cfu count: 1 h exposure
Description: Post antibiotic effect (PAE) was determined as follows. […] Following incubation, cultures were centrifuged and washed twice with pre-warmed MHBII to remove any traces of antibiotics. Finally, cells were resuspended in drug-free MHBII and incubated further at 37 °C. Samples were taken every 1 h, serially diluted, and plated on tryptic soy agar (TSA) for enumeration of CFU. […] CFU observed immediately after the removal of the drug, and C in a similarly treated drug-free control.

[7] = test system: 36th Passage S.aureus ATCC 29213 in the presence of Levofloxacin; experiment: Antibiogram of strain passaged with levofloxacin; format: cell-based; conditions: Staphylococcus aureus, ATCC29213
Description: as §1

S. aureus (CCUG 62707) = experiment: MIC of COD ligand and Pt precursor, S. aureus CCUG 62707; format: cell-based
E. coli (NCTC 13476) = experiment: MIC, E. coli NCTC 13476 (with or without PMBN); format: cell-based
[8] = 60 min, Pt1 3.125 µM, Pt8 25 µM, CisPt 100 µM

Compound | MIC [1] | MIC (S. aureus ATCC 29213 [2]) | FIC B (S. aureus ATCC 29213 [2]) | FIC (FICA+FICB) (S. aureus ATCC 29213 [2]) | Interference (S. aureus ATCC 29213 [2]) | MIC (MSSA ATCC 29213) | also measured
CNC(C)C1CCC(N)C(OC2C(N)CC(N)C(OC3OCC(C)(O)C(NC)C3O)C2O)O1 (stereo not shown) [Gentamicin] | 0.5 µg/mL (≈ 1.05 µM) | 0.25 µg/mL | 1 | 2 | no interaction | 0.25 µg/mL (≈ 0.523 µM) | –
N.N.[Cl][Pt][Cl] [CisPt, cisplatin] | – | – | – | – | – | – | MIC [3]: >100 µM; DAPI fluorescence intensity (B. subtilis bSS82; [8]): significant reduction of the DAPI signal; nucleoid compaction (cell area vs DAPI-stained nucleoid area) (B. subtilis bSS82; [8]): clear nucleoid compaction; growth and cell length phenotype (B. subtilis bSS82; B. subtilis, 100 µM): slight growth defects and a mild cell elongation phenotype; RecA accumulation on nucleoids [4]: clear RecA accumulations; MIC (Bacillus subtilis MW168): >100 µM; MIC [5]: >100 µM; IC50 (HEK293T cells; 24 h): 81.6 ± 5.1 µM; IC50 (HEK293T cells; 48 h): 22 ± 3.4 µM
C[C@H]1COc2c(N3CCN(C)CC3)c(F)cc3c(=O)c(C(=O)O)cn1c23 [Levofloxacin] | 0.25 µg/mL (≈ 0.692 µM) | 0.25 µg/mL | 1 | 2 | no interaction | 0.25 µg/mL (≈ 0.692 µM) | PAE (S. aureus ATCC 29213 [6]; 1x MIC): ~ 0.5 h; Time for 1 log10 increase in bacterial cfu count (S. aureus ATCC 29213 [6]; 1x MIC): ~ 3 h; PAE (S. aureus ATCC 29213 [6]; 5x MIC): ~ 1.5 h; Time for 1 log10 increase in bacterial cfu count (S. aureus ATCC 29213 [6]; 5x MIC): ~ 4 h; PAE (S. aureus ATCC 29213 [6]; 10x MIC): ~ 1.5 h; Time for 1 log10 increase in bacterial cfu count (S. aureus ATCC 29213 [6]; 10x MIC): ~ 4 h; PAE (S. aureus ATCC 29213 [6]; 10x MIC, listed as levofloxacin): 1.5 h; MIC [7]: 32 µg/mL (≈ 88.6 µM)
[Cl][Pt-2]([Cl])([Cl])[Cl].[K+].[K+] [Pt K2PtCl4, K2PtCl4] | – | – | – | – | – | – | MIC (S. aureus (CCUG 62707); S. aureus CCUG 62707): > 200 µM; MIC (E. coli (NCTC 13476); E. coli NCTC 13476): > 200 µM
C[C@@H](O)[C@H]1C(=O)N2C(C(=O)O)=C(S[C@@H]3CN[C@H](C(=O)N(C)C)C3)[C@H](C)[C@H]12 [Meropenem] | 0.25 µg/mL (≈ 0.652 µM) | 0.25 µg/mL | 1 | 2 | no interaction | 0.25 µg/mL (≈ 0.652 µM) | MIC [7]: 0.125 µg/mL (≈ 0.326 µM)
C1=CCCC=CCC1 [1,5-Cyclooctadiene, 1,5-cyclooctadiene] | – | – | – | – | – | – | MIC (S. aureus (CCUG 62707); Staphylococcus aureus, CCUG62707): > 200 µM; MIC (E. coli (NCTC 13476); Escherichia coli, NCTC13476): > 200 µM
CC(C)(O/N=C(\C(=O)N[C@@H]1C(=O)N2C(C(=O)[O-])=C(C[n+]3ccccc3)CS[C@H]12)c1csc(N)n1)C(=O)O [Ceftazidime] | 16 µg/mL (≈ 29.3 µM) | 16 µg/mL | 1 | 2 | no interaction | 16 µg/mL (≈ 29.3 µM) | –
